Measurements as given in publication PMC12024912, “Druggability Studies of Benzene Sulfonamide Substituted Diarylamide (E3) as a Novel Diuretic” (Biomedicines, 2025).

What was measured:
[1] = Acute oral toxicity test in mice; assay type: in vivo; conditions: both sexes, mouse, in vivo, 5000 mg/kg; mice; oral; 14-day acute toxicity assay
Procedure: (§1) The acute oral toxicity test was performed according to “Guidance on Single Dose Toxicity Study for Pharmaceuticals” (2014), “Guidance for industry: single dose acute toxicity testing for pharmaceuticals” (1996). The initial dose for preliminary trials was established at 5000 mg/kg. A total of three female and three male mice were utilized (one of each sex for preliminary experiments and two for subsequent experiments). Following a 12 h fasting period, one male and one female mouse were selected and administered E3. After 24 h of confirming survival and the absence of abnormal behavior, the remaining four animals were given the same dose. The control group was given solvent (0.5% CMC-Na). Observations of all animals on the day of dosing (d 0) and in the days following were recorded, including general conditions (signs of toxicity, onset of symptoms, recovery period), changes in body weight, and mortality. After 14 d, blood and vital organ tissues were collected, and serum biochemical indicators as well as histopathological examinations were conducted.

mice [2] = test: Acute oral toxicity test in mice; assay type: in vivo
Procedure: as §1

Blood stability, rabbit = assay type: in vitro ADME; conditions: plasma, n=3
Procedure: (§2) Plasma from mice, rats, rabbits, and humans was obtained from blood after centrifugation at 3000 r/min for 10 min. Simulated gastric fluid (SGF, pH = 1, containing pepsin) and simulated intestinal fluid (SIF, pH = 6.8, containing trypsin) were configured previously in the experiments. SD rats and mice were collected, and after removing the mucus layer from the small intestine and colon, 20 times the volume of liquid bacterial culture medium was added. An intestinal microbiota suspension was obtained after anaerobic cultivation on a shaking table at 37 °C for 12 h. In the aforementioned systems, E3 was added at a final concentration of 1 μmol/L at 37 °C for different incubation times (0, 10, 20, 30, 60, 120, and 240 min). In liver metabolic stability assays, E3 was incubated with liver microsomes or liver homogenate from mice or rats for 60 min at 37 °C. The stop solution, 5 ng/mL tolbutamide (internal standard, IS) in acetonitrile, was added to stop the metabolic process. Post-centrifugation (18,000× g, 10 min, 4 °C), supernatants were subjected to liquid chromatography–tandem mass spectrometry (LC–MS/MS). Analyte-to-IS peak area ratios quantified residual percentages via Equation (2):Remaining% = (E3peak area/ISpeak area at different time)/(E3peak area/ISpeak area at 0 min) × 100%.(2)

mice [3] = test: Diuretic effect of single intragastric administration in mice (metabolic cages); assay type: in vivo, mouse
Procedure: In a single-dose administration experiment, male wild-type (WT) mice, UT-B^-/- mice, UT-A1^-/- mice, or SD rats were adapted in metabolic cages for 3 d. Food and water were provided ad libitum throughout the experiment. Prior to administration, the bladder of each animal was emptied through gentle abdominal massage, and urine was collected from the metabolic cages every 2 h. Compound E3, suspended in 0.5% CMC-Na at an appropriate concentration, was administered intragastric gavage to the mice or rats (0.16, 0.8, 4, or 20 mg/kg). Vehicle control comprised 0.5% (w/v) CMC-Na. Urinary parameters were determined through the following: volume: Gravimetric analysis (1 g/mL density assumption); osmolality: freezing-point osmometry (Micro-osmometer, […] Associates, Norwood, MA, USA); and urea: diacetyl oxime colorimetry (QuantiChrom® kit, Elabscience, Wuhan, China). In long-term (7 d) diuretic activity experiments, male WT mice, UT-B^-/- mice, UT-A1^-/- mice, and SD rats were acclimatized in metabolic cages (Ugo Basile, Comerio, VA, Italy) for 3 d. Food and water were provided ad libitum throughout the experiment. E3 was suspended in 0.5% CMC-Na and administered at a dose of 4 or 20 mg/kg by intragastric gavage. Urine was collected by metabolic cages every 24 h. Body weight was measured daily. At 4 h after the final administration, a blood sample was obtained by heart puncture. Inner medulla and outer medulla tissue homogenates were prepared, and the supernatant after centrifugation was analyzed for solute concentration and osmolality. Urinary osmolality and urea concentration were measured as above. Serum Na^+, K^+, and Cl^- were measured in a clinical chemistry laboratory, while serum creatinine, ALT, and AST were measured through specific reagent kits (NJJC Bio, Nanjing, China).

[4] = Intestinal microbiota stability, rat; assay type: in vitro ADME; conditions: Sprague-Dawley
Procedure: as §2

[5] = Liver homogenate metabolic stability, rat; assay type: in vitro ADME
Procedure: as §2

[6] = UT-A1−/− mice, 20 mg/kg single dose
[7] = UT-B−/− mice, 20 mg/kg single dose
[8] = mice, single intragastric gavage

CC(=O)c1ccc(C(=O)Nc2cccc(NS(=O)(=O)c3ccccc3)c2)o1 [Compound E3, 5-acetyl-N-(3-(phenylsulfonamido)phenyl)furan-2-carboxamide]
LD50 at 14 d [1]: > 5000 mg/kg
Brain organ index (mice [2]; female mice, 5g/kg, n=3): 1.72±0.10%
Kidney organ index (mice [2]; female mice, 5g/kg, n=3): 1.06±0.02%
Liver organ index (mice [2]; female mice, 5g/kg, n=3): 4.86±0.08%
Lung organ index (mice [2]; female mice, 5g/kg, n=3): 0.73±0.04%
Ovary organ index (mice [2]; female mice, 5g/kg, n=3): 0.11±0.02%
Spleen organ index (mice [2]; female mice, 5g/kg, n=3): 0.4±0.01%
Thymus organ index (mice [2]; female mice, 5g/kg, n=3): 0.27±0.06%
Uterus organ index (mice [2]; female mice, 5g/kg, n=3): 0.3±0.02%
Brain organ index (mice [2]; male mice, 5g/kg, n=3): 1.35±0.01%
Epididymis organ index (mice [2]; male mice, 5g/kg, n=3): 0.17±0.01%
Kidney organ index (mice [2]; male mice, 5g/kg, n=3): 1.26±0.02%
Liver organ index (mice [2]; male mice, 5g/kg, n=3): 5.16±0.12%
Lung organ index (mice [2]; male mice, 5g/kg, n=3): 0.72±0.02%
Spleen organ index (mice [2]; male mice, 5g/kg, n=3): 0.37±0.02%
Testis organ index (mice [2]; male mice, 5g/kg, n=3): 0.73±0.02%
Thymus organ index (mice [2]; male mice, 5g/kg, n=3): 0.25±0.01%
H&E staining of heart, kidney, liver, spleen, and brain (mice [2]; mouse, in vivo, po, 5000 mg/kg): no apparent abnormalities
organ indexes (mice [2]; mouse, in vivo, po, 5000 mg/kg): no significant difference
representative blood biochemical indicators (mice [2]; mouse, in vivo, po, 5000 mg/kg): not statistically altered
remaining at 1 μmol/L (Blood stability, rabbit): 35.7%
excretion of non-urea solutes (mice [3]; [6]): not significantly changed
urea concentration (urine) (mice [3]; [6]): no significant change
urinary osmolality (mice [3]; [6]): no significant change
urine output (mice [3]; [6]): no significant change
excretion of non-urea solutes (mice [3]; [7]): not significantly changed
urinary osmolality (mice [3]; [7]): decreased correspondingly
urinary urea (mice [3]; [7]): decreased correspondingly
urine output (mice [3]; UT-B−/− mice, 20 mg/kg single dose, 2 h post administration): markedly increased
urinary osmolality (mice [3]; [8]): decreased
urinary urea (mice [3]; [8]): decreased
urine output (mice [3]; mice, single intragastric gavage 0.16-20 mg/kg, vs vehicle): significantly increased
excretion of non-urea solutes (mice [3]; mice, single intragastric gavage, vs control): not significantly different
remaining at 1 μmol/L ([4]; colon microbiota suspension, n=3, read-out: Rat colon microbiota (remaining %)): 82.3%
remaining at 1 μmol/L ([4]; small intestine microbiota suspension, n=3, read-out: Rat small intestine microbiota (remaining %)): 87.4%
CLhep, rat liver homogenate ([5]; calculated with 45 mg/g liver, 40 g liver/kg): 46.4 mL/min/kg
remaining at 1 h ([5]; rat, liver homogenate, 60 min incubation, 37 °C, n=3): 69%
